Values belong to the molecule of their own block, whether it stands above or below them.
Legend:
MlaBDEFab [1] = target: T1, MlaBDEFab (Acinetobacter baumannii, UniProt A0A4P2WWN2+V5V921+V5V9F4); test: cryo-EM map, […] A (no model deposited); type: binding; settings: protein mixed 1:1 with 20 mM nucleotide, pH 8.0, 0.025% DDM; same nucleotide site; EMD-11084 in Table 1
T1 construct: gene ttg2A; full mla operon expressed in E. coli BL21(DE3), Ni-NTA purified (tag not described), in DDM; C2 complex MlaF2-MlaE2-MlaD6-MlaB2 (about half of particles with one MlaB)

MlaBDEFab [2] = target: T1, MlaBDEFab; test: cryo-EM structure, […] A; type: binding; settings: Mg2+ seen in site; protein mixed 1:1 with 20 mM nucleotide, pH 8.0, 0.025% DDM; nucleotide site at MlaF/MlaE/MlaD interface (MlaF Lys55, Ser51, His211, Arg26); non-hydrolysable ATP analogue
[3] = target: MlaD of the A. baumannii MlaBDEF complex (MlaBDEFab) (Acinetobacter baumannii) (UniProt V5V921); test: cryo-EM structure; single-particle cryo-EM of the purified MlaBDEFab complex in DDM; 20 mM Hepes (pH 7.0), 150 mM NaCl, 0.025% (w/v) DDM; with AppNHp (3.9 Å, atomic model), also apo (~4.2 Å) and with ADP (~4.4 Å)
[4] = target: MlaF of the A. baumannii MlaBDEF complex (MlaBDEFab) (Acinetobacter baumannii); test: as above

stoichiometry N [3]: 6
Molecule: MlaD of the A. baumannii MlaBDEF complex (MlaBDEFab) (from UniProt V5V921 1-226) (natural protein)

percent of particles with MlaB bound to both MlaF [4]: 50%
B1: MlaB of the A. baumannii MlaBDEF complex (MlaBDEFab) (natural protein)
chain: MVQYLNQELVVSGKIDFENAEQQYQAGLAIIKKQTSFPLIVDLKQLEHGNTLALAVLVQWLRQTPQKSGLHFKNVPEKMLKIIQACHLQEDLHLV

More lines, now with the values behind:

Molecule: Nc1ncnc2c1ncn2[C@@H]1O[C@H](COP(=O)(O)OP(=O)(O)O)[C@@H](O)[C@H]1O [ADP]
cryo-EM map, 4.43 A (no model deposited) (MlaBDEFab [1]): confirms the presence of nucleotide in the AppNHp and ADP maps

Molecule: Nc1ncnc2c1ncn2[C@@H]1O[C@H](COP(=O)(O)OP(=O)(O)NP(=O)(O)O)[C@@H](O)[C@H]1O [AppNHp]
cryo-EM structure, 3.92 A (MlaBDEFab [2]): we observed clear density of the nucleotide and magnesium, within the MlaF binding pocket

From publication PMC8241846, “Structure and lipid dynamics in the maintenance of lipid asymmetry inner membrane complex of A. baumannii” (Communications Biology, 2021)
